Biological target: Human cGAS amino acids 155-522 (Homo sapiens (Human), UniProt Q8N884)
Assay: cGAS biochemical activity assay (ATP remaining, Kinase-Glo Max luminescence)
Details: human cGAS 155-522, ATP remaining (Kinase-Glo Max); read-out: cGAS IC50

Sequence of Human cGAS amino acids 155-522 (Q8N884 157-522): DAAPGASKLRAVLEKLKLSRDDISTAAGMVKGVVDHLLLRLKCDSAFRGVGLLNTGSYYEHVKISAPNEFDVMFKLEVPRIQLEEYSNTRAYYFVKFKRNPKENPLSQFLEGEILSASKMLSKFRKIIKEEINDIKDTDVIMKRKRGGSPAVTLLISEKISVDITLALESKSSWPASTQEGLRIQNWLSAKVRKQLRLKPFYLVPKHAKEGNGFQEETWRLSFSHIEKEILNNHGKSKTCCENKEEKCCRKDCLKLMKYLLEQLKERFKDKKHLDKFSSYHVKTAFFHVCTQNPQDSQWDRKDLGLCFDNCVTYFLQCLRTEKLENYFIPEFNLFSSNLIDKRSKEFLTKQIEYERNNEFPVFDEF

IC50 | SMILES
< 20 µM | COc1ccnc(NC(=O)c2c(C)[nH]c3c(-c4ccccc4)c(C)nn3c2=O)c1 [Compound A1105, N-(4-methoxypyridin-2-yl)-2,5-dimethyl-7-oxo-3-phenyl-4,7-dihydropyrazolo[1,5-a]pyrimidine-6-carboxamide]
20 to 250 µM | Cc1[nH]c2c(-c3ccccc3)c(C(F)(F)F)nn2c(=O)c1-c1nnc(-c2ccccc2N)o1 [Compound D1082, 6-(5-(2-aminophenyl)-1,3,4-oxadiazol-2-yl)-5-methyl-3-phenyl-2-(trifluoromethyl)pyrazolo[1,5-a]pyrimidin-7(4H)-one]
20 to 250 µM | CC(=O)Nc1ccccc1NC(=O)c1c(C)[nH]c2c(-c3ccccc3)c(C(F)(F)F)nn2c1=O [Compound A1021, N-(2-acetamidophenyl)-5-methyl-7-oxo-3-phenyl-2-(trifluoromethyl)-4,7-dihydropyrazolo[1,5-a]pyrimidine-6-carboxamide]
> 250 µM | COc1cccc(N(C)C(=O)c2c(C)[nH]c3c(-c4ccccc4)c(C(F)(F)F)nn3c2=O)c1 [Compound A1114, N-(3-methoxyphenyl)-N,5-dimethyl-7-oxo-3-phenyl-2-(trifluoromethyl)-4,7-dihydropyrazolo[1,5-a]pyrimidine-6-carboxamide]
> 250 µM | Cc1[nH]c2c(-c3cccnc3)c(C(F)(F)F)nn2c(=O)c1-c1nc2c(o1)CCCC2 [Compound C1036, 5-methyl-3-(pyridin-3-yl)-6-(4,5,6,7-tetrahydrobenzo[d]oxazol-2-yl)-2-(trifluoromethyl)pyrazolo[1,5-a]pyrimidin-7(4H)-one]
20 to 250 µM | COc1cccc2oc(-c3c(C)[nH]c4c(-c5ccccc5)c(OC5CCOCC5)nn4c3=O)nc12 [Compound C1080, 6-(4-methoxybenzo[d]oxazol-2-yl)-5-methyl-3-phenyl-2-((tetrahydro-2H-pyran-4-yl)oxy)pyrazolo[1,5-a]pyrimidin-7(4H)-one]
20 to 250 µM | COc1cccc2oc(-c3c(C)[nH]c4c(-c5cccnc5)c(C(F)(F)F)nn4c3=O)nc12 [Compound C1129, 6-(4-methoxybenzo[d]oxazol-2-yl)-5-methyl-3-(pyridin-3-yl)-2-(trifluoromethyl)pyrazolo[1,5-a]pyrimidin-7(4H)-one]
20 to 250 µM | Cc1[nH]c2c(-c3ccccc3)c(C(F)(F)F)nn2c(=O)c1CC(=O)Nc1ccccc1N [Compound B1001, N-(2-aminophenyl)-2-(5-methyl-7-oxo-3-phenyl-2-(trifluoromethyl)-4,7-dihydropyrazolo[1,5-a]pyrimidin-6-yl)acetamide]
< 20 µM | Cc1[nH]c2c(-c3ccccc3)c(C(F)(F)F)nn2c(=O)c1C(=O)Nc1nn(C)cc1C#N [Compound A1090, N-(4-cyano-1-methyl-1H-pyrazol-3-yl)-5-methyl-7-oxo-3-phenyl-2-(trifluoromethyl)-4,7-dihydropyrazolo[1,5-a]pyrimidine-6-carboxamide]
< 20 µM | Cc1[nH]c2c(-c3ccccc3)c(C#N)nn2c(=O)c1-c1nc2ccccc2n1C1CCCCC1 [Compound C1276, 6-(1-cyclohexyl-1H-benzo[d]imidazol-2-yl)-5-methyl-7-oxo-3-phenyl-4,7-dihydropyrazolo[1,5-a]pyrimidine-2-carbonitrile]
< 20 µM | Cc1[nH]c2c(-c3ccccc3)c(C(F)(F)F)nn2c(=O)c1-c1n[nH]c(=O)o1 [Compound C1247, 5-(5-methyl-7-oxo-3-phenyl-2-(trifluoromethyl)-4,7-dihydropyrazolo[1,5-a]pyrimidin-6-yl)-1,3,4-oxadiazol-2(3H)-one]
20 to 250 µM | COc1cccc2oc(-c3c(C4CCC(C(=O)O)CC4)[nH]c4c(-c5ccccc5)c(C(F)(F)F)nn4c3=O)nc12 (single isomer, unassigned) [Compound C1238, 4-(6-(4-methoxybenzo[d]oxazol-2-yl)-7-oxo-3-phenyl-2-(trifluoromethyl)-4,7-dihydropyrazolo[1,5-a]pyrimidin-5-yl)cyclohexane-1-carboxylic acid]
20 to 250 µM | Cc1[nH]c2c(-c3ccccc3)c(C(F)(F)F)nn2c(=O)c1C(=O)Nc1ccon1 [Compound A1020, N-(isoxazol-3-yl)-5-methyl-7-oxo-3-phenyl-2-(trifluoromethyl)-4,7-dihydropyrazolo[1,5-a]pyrimidine-6-carboxamide]
20 to 250 µM | COc1ccc(-c2c(C(F)(F)F)nn3c(=O)c(-c4nc5c(OC)cccc5o4)c(C)[nH]c23)cc1 [Compound C1115, 6-(4-methoxybenzo[d]oxazol-2-yl)-3-(4-methoxyphenyl)-5-methyl-2-(trifluoromethyl)pyrazolo[1,5-a]pyrimidin-7(4H)-one]
> 250 µM | Cc1[nH]c2c(C3CCCC3)c(C(F)(F)F)nn2c(=O)c1-c1ccccc1 [Compound C1266, 3-cyclopentyl-5-methyl-6-phenyl-2-(trifluoromethyl)pyrazolo[1,5-a]pyrimidin-7(4H)-one]
20 to 250 µM | COc1ccc(F)cc1NC(=O)c1c(C)[nH]c2c(-c3ccccc3)c(C(F)(F)F)nn2c1=O [Compound A1071, N-(5-fluoro-2-methoxyphenyl)-5-methyl-7-oxo-3-phenyl-2-(trifluoromethyl)-4,7-dihydropyrazolo[1,5-a]pyrimidine-6-carboxamide]

IC50 | SMILES
> 250 µM | Cc1[nH]c2c(C3CCCC3)c(C(F)(F)F)nn2c(=O)c1Cc1ccccc1 [Compound C1267, 6-benzyl-3-cyclopentyl-5-methyl-2-(trifluoromethyl)pyrazolo[1,5-a]pyrimidin-7(4H)-one]
20 to 250 µM | Cc1[nH]c2c(-c3ccccc3)c(C(F)(F)F)nn2c(=O)c1N1Cc2ccc(N)cc2C1=O [Compound C1217, 6-(6-amino-1-oxoisoindolin-2-yl)-5-methyl-3-phenyl-2-(trifluoromethyl)pyrazolo[1,5-a]pyrimidin-7(4H)-one]
< 20 µM | Cc1[nH]c2c(-c3ccccc3)c(C#N)nn2c(=O)c1-c1nc2c(OC3CC3)cccc2o1 [Compound C1277, 6-(4-cyclopropoxybenzo[d]oxazol-2-yl)-5-methyl-7-oxo-3-phenyl-4,7-dihydropyrazolo[1,5-a]pyrimidine-2-carbonitrile]
> 250 µM | Cc1[nH]c2c(-c3ccccc3)c(C(F)(F)F)nn2c(=O)c1C(=O)N1CCOCC1 [Compound A1004, 5-methyl-6-(morpholine-4-carbonyl)-3-phenyl-2-(trifluoromethyl)pyrazolo[1,5-a]pyrimidin-7(4H)-one]
20 to 250 µM | COc1ncccc1NC(=O)c1c(C)[nH]c2c(-c3ccccc3)c(C(F)(F)F)nn2c1=O [Compound A1093, N-(2-methoxypyridin-3-yl)-5-methyl-7-oxo-3-phenyl-2-(trifluoromethyl)-4,7-dihydropyrazolo[1,5-a]pyrimidine-6-carboxamide]
20 to 250 µM | Cc1[nH]c2c(-c3ccccc3)c(C(F)(F)F)nn2c(=O)c1C(=O)N[C@H]1CCCC[C@@H]1O [Compound A1091, N-((1S,2S)-2-hydroxycyclohexyl)-5-methyl-7-oxo-3-phenyl-2-(trifluoromethyl)-4,7-dihydropyrazolo[1,5-a]pyrimidine-6-carboxamide]
< 20 µM | CO[C@H]1CCCC1c1nnc(-c2c(C)[nH]c3c(-c4ccccc4)c(C(F)(F)F)nn3c2=O)o1 (some centres unmarked) [D1049 Iso-1]
20 to 250 µM | Cc1[nH]c2c(-c3ccccc3)c(C(F)(F)F)nn2c(=O)c1-c1nnc(C2CCOC2)o1 (centres unmarked) [Compound D1013, 5-methyl-3-phenyl-6-(5-(tetrahydrofuran-3-yl)-1,3,4-oxadiazol-2-yl)-2-(trifluoromethyl)pyrazolo[1,5-a]pyrimidin-7(4H)-one]
< 20 µM | Cc1[nH]c2c(-c3ccccc3)c(C(F)(F)F)nn2c(=O)c1-c1nnc(N2CCCC(N)C2)o1 (centres unmarked) [Compound D1084, 6-(5-(3-aminopiperidin-1-yl)-1,3,4-oxadiazol-2-yl)-5-methyl-3-phenyl-2-(trifluoromethyl)pyrazolo[1,5-a]pyrimidin-7(4H)-one]
> 250 µM | COc1cccc2oc(-c3c(C)[nH]c4c(-c5ccc(C#N)cc5)c(C(F)(F)F)nn4c3=O)nc12 [Compound C1164, 4-(6-(4-methoxybenzo[d]oxazol-2-yl)-5-methyl-7-oxo-2-(trifluoromethyl)-4,7-dihydropyrazolo[1,5-a]pyrimidin-3-yl)benzonitrile]
20 to 250 µM | Cc1[nH]c2c(-c3ccccc3)c(C(F)(F)F)nn2c(=O)c1C(=O)Nc1cnccc1S(C)(=O)=O [Compound A1109, 5-methyl-N-(4-(methylsulfonyl)pyridin-3-yl)-7-oxo-3-phenyl-2-(trifluoromethyl)-4,7-dihydropyrazolo[1,5-a]pyrimidine-6-carboxamide]
20 to 250 µM | COc1cccc2c1CN(c1c(C)[nH]c3c(-c4ccccc4)c(C(F)(F)F)nn3c1=O)C2=O [Compound C1220, 6-(4-methoxy-1-oxoisoindolin-2-yl)-5-methyl-3-phenyl-2-(trifluoromethyl)pyrazolo[1,5-a]pyrimidin-7(4H)-one]
20 to 250 µM | Cc1[nH]c2c(-c3ccccc3)c(C(F)(F)F)nn2c(=O)c1C(=O)Nc1ccccc1N1CCCCC1 [Compound A1055, 5-methyl-7-oxo-3-phenyl-N-(2-(piperidin-1-yl)phenyl)-2-(trifluoromethyl)-4,7-dihydropyrazolo[1,5-a]pyrimidine-6-carboxamide]
20 to 250 µM | COc1cc(NC(=O)c2c(C)[nH]c3c(-c4ccccc4)c(C(F)(F)F)nn3c2=O)ccn1 [Compound A1087, N-(2-methoxypyridin-4-yl)-5-methyl-7-oxo-3-phenyl-2-(trifluoromethyl)-4,7-dihydropyrazolo[1,5-a]pyrimidine-6-carboxamide]
20 to 250 µM | Cc1[nH]c2c(-c3ccccc3)c(C(F)(F)F)nn2c(=O)c1-c1nc(C(N)=O)co1 [Compound C1102, 2-(5-methyl-7-oxo-3-phenyl-2-(trifluoromethyl)-4,7-dihydropyrazolo[1,5-a]pyrimidin-6-yl)oxazole-4-carboxamide]

SMILES | IC50
COc1cccc(NC(=O)c2c(C)[nH]c3c(-c4ccccc4)c(SC)nn3c2=O)c1 [Compound A1122, N-(3-methoxyphenyl)-5-methyl-2-(methylthio)-7-oxo-3-phenyl-4,7-dihydropyrazolo[1,5-a]pyrimidine-6-carboxamide] | 20 to 250 µM
